Like-named read-outs stand apart in the source and are kept apart here. Where no end group is shown, it is not given here.
Tests used:
Assay in all cases: Direct-binding FRET assay
BATF3 = molecular target: T1, BATF3 (Homo sapiens, UniProt Q9NR55); conditions: mean or single, read-out: Kd
T1 construct: made in house
T1 sequence (Q9NR55 35-98 limits assumed): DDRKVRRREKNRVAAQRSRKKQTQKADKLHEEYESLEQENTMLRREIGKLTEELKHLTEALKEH
Procedure: (§1) The direct binding assay was performed manually in 384-well plates and is similar to a previously described assay. Wells were filled with 20 μL of 1 mM TCEP-HCl. A 4 μM stock of acceptor protein was made fresh in 1 mM TCEP-HCl, and 20 μL was titrated in 2-fold dilutions over the wells. […] The direct-binding FRET data were fit as previously described. Briefly, the Kd of the designed peptide homodimer was experimentally determined and used with previously determined target homodimer Kd values to determine the heterodimer Kd. The homodimer Kd values used for the human bZIPs were from; experiments done by […] et al. used the same protein constructs for the human bZIP proteins, the same buffer conditions, and the same assay. The fitting used a system of ordinary differential equations to describe the concentrations of homo and heterodimers formed by the donor (D) and acceptor (A) as a function of the heterodimer Kd. MATLAB was used to simulate the binding experiment for different Kd values, and the value that gave the best agreement between simulation and experiment was assigned. A minimum 15% change in the donor fluorescence upon titrating the acceptor peptide from 0 to 1000 nM was required for a fit to be attempted. If this minimum was not met, the interaction was classified as “NS” for no signal change. […] These interactions were marked “AS” to indicate anomalous signal. We attributed this to interactions between the peptides, the dyes and the walls of the assay plates at low concentrations. These curves could not be fit, given their unusual shapes at low concentrations of acceptor. For such curves, we removed the first five points and re-fit the data. […] One example of this is increasing concentrations of acceptor causing an increase in donor fluorescence.

ATF2 = molecular target: T2, ATF2 (Homo sapiens, UniProt P15336); conditions: read-out: Kd
T2 construct: made in house
T2 sequence (P15336 352-415 limits assumed): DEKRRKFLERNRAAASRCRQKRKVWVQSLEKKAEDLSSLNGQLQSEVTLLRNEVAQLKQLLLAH
Procedure: as §1

CREB3 = molecular target: T3, CREB3 (Homo sapiens, UniProt O43889); conditions: mean or single, read-out: Kd
T3 construct: made in house
T3 sequence (O43889 150-213 limits assumed): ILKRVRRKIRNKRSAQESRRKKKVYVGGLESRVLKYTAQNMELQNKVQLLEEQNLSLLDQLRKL
Procedure: as §1

DBP = molecular target: T4, DBP (Homo sapiens, UniProt Q10586); conditions: read-out: Kd
T4 construct: made in house
T4 sequence (Q10586 255-318 limits assumed): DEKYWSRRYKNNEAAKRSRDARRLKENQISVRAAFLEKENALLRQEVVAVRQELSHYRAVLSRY
Procedure: as §1

ATF5 = molecular target: T5, ATF5 (Homo sapiens, UniProt Q9Y2D1); conditions: read-out: Kd
T5 construct: made in house
T5 sequence (Q9Y2D1 208-271 limits assumed): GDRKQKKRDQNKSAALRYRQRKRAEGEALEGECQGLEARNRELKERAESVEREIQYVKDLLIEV
Procedure: as §1

BATF2 = molecular target: T6, BATF2 (Homo sapiens, UniProt Q8N1L9); conditions: read-out: Kd
T6 construct: made in house
T6 sequence (Q8N1L9 17-80 limits assumed): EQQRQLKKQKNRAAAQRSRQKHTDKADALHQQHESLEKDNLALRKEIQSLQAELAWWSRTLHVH
Procedure: as §1

NFIL3 = molecular target: T7, NFIL3 (Homo sapiens, UniProt Q16649); conditions: read-out: Kd
T7 construct: made in house
T7 sequence (Q16649 73-136 limits assumed): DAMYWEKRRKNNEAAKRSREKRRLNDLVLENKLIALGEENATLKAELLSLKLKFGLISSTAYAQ
Procedure: as §1

CREBZF = molecular target: T8, CREBZF (Homo sapiens, UniProt Q9NS37); conditions: read-out: Kd
T8 construct: made in house
T8 sequence (Q9NS37 204-267 limits assumed): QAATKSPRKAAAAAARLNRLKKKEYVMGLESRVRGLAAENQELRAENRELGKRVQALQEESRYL
Procedure: as §1

FOSL1 = molecular target: T9, FOSL1 (Homo sapiens, UniProt P15407); conditions: read-out: Kd
T9 construct: made in house
T9 sequence (P15407 105-168 limits assumed): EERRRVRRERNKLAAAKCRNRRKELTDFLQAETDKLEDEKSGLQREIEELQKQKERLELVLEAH
Procedure: as §1

HLF = molecular target: T10, HLF (Homo sapiens, UniProt Q16534); conditions: read-out: Kd
T10 construct: made in house
T10 sequence (Q16534 225-288 limits assumed): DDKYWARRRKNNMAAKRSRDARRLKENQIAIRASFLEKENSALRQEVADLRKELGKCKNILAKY
Procedure: as §1

[1] = 4°C, C-terminal rhodamine design
[2] = 4°C, N-terminal rhodamine design
[3] = 23°C, C-terminal rhodamine design
[4] = 23°C, N-terminal rhodamine design
[5] = 37°C, C-terminal rhodamine design
[6] = 37°C, N-terminal rhodamine design
[7] = 4°C, C-terminal fluorescein design as donor, TAMRA target titrated
[8] = 4°C, N-terminal rhodamine design, mean or single
[9] = 23°C, C-terminal fluorescein design as donor, TAMRA target titrated
[10] = 23°C, C-terminal rhodamine design, repeat 1
[11] = 23°C, N-terminal rhodamine design, mean or single
[12] = 37°C, C-terminal fluorescein design as donor, TAMRA target titrated
[13] = 37°C, C-terminal rhodamine design, repeat 1
[14] = 37°C, N-terminal rhodamine design, mean or single
[15] = 4°C, C-terminal rhodamine design, mean or single
[16] = 23°C, C-terminal rhodamine design, mean or single
[17] = 37°C, C-terminal rhodamine design, mean or single
[18] = 23°C, C-terminal rhodamine design, repeat 2
[19] = 37°C, C-terminal rhodamine design, repeat 2
[20] = 37°C, C-terminal rhodamine design, repeat 3

Kd (BATF3; [1]): > 1000 nM | Kd (BATF3; [2]): > 1000 nM | Kd (BATF3; [3]): > 1000 nM | Kd (BATF3; [4]): > 1000 nM | Kd (BATF3; [5]): > 1000 nM | Kd (BATF3; [6]): > 1000 nM | Kd (ATF2; [7]): > 5000 nM | Kd (ATF2; 4°C, C-terminal rhodamine design, repeat 1): > 5000 nM | Kd (ATF2; [8]): > 1000 nM | Kd (ATF2; [9]): > 1000 nM | Kd (ATF2; [10]): > 1000 nM | Kd (ATF2; [11]): > 1000 nM | Kd (ATF2; [12]): > 5000 nM | Kd (ATF2; [13]): > 5000 nM | Kd (ATF2; [14]): > 1000 nM | Kd (CREB3; [1]): > 1000 nM | Kd (CREB3; [2]): > 1000 nM | Kd (CREB3; [3]): > 1000 nM | Kd (CREB3; [4]): > 1000 nM | Kd (CREB3; [5]): > 5000 nM | Kd (CREB3; [6]): > 1000 nM | Kd (DBP; [15]): > 5000 nM | Kd (DBP; [8]): > 1000 nM | Kd (DBP; [9]): > 1000 nM | Kd (DBP; [16]): > 1000 nM | Kd (DBP; [11]): > 1000 nM | Kd (DBP; [12]): > 1000 nM | Kd (DBP; [17]): > 1000 nM | Kd (DBP; [14]): > 1000 nM | Kd (ATF5; [7]): 35.5 nM | Kd (ATF5; [15]): > 5000 nM | Kd (ATF5; [16]): > 5000 nM | Kd (ATF5; [10]): > 5000 nM | Kd (ATF5; [18]): > 5000 nM | Kd (ATF5; 23°C, C-terminal rhodamine design, repeat 3): > 5000 nM | Kd (ATF5; 23°C, N-terminal rhodamine design, repeat 1): > 1000 nM | Kd (ATF5; [12]): > 1000 nM | Kd (ATF5; [17]): > 5000 nM | Kd (ATF5; [13]): > 5000 nM | Kd (ATF5; [19]): > 5000 nM | Kd (ATF5; [20]): > 5000 nM | Kd (ATF5; [14]): > 1000 nM | Kd (ATF5; 37°C, N-terminal rhodamine design, repeat 1): > 1000 nM | Kd (ATF5; 37°C, N-terminal rhodamine design, repeat 2): > 1000 nM | Kd (ATF5; 37°C, N-terminal rhodamine design, repeat 3): > 1000 nM | Kd (BATF2; [7]): > 1000 nM | Kd (BATF2; [15]): > 1000 nM | Kd (BATF2; [8]): > 1000 nM | Kd (BATF2; [9]): > 1000 nM | Kd (BATF2; [16]): > 1000 nM | Kd (BATF2; [11]): > 1000 nM | Kd (BATF2; [12]): > 1000 nM | Kd (BATF2; [17]): > 1000 nM | Kd (BATF2; [14]): > 1000 nM | Kd (NFIL3; [7]): 42.4 nM | Kd (NFIL3; [15]): 22.8 nM | Kd (NFIL3; [8]): > 1000 nM | Kd (NFIL3; [9]): > 1000 nM | Kd (NFIL3; [10]): > 5000 nM | Kd (NFIL3; [18]): > 5000 nM | Kd (NFIL3; [11]): > 1000 nM | Kd (NFIL3; [12]): > 1000 nM | Kd (NFIL3; [17]): > 5000 nM | Kd (NFIL3; [13]): > 5000 nM | Kd (NFIL3; [19]): > 5000 nM | Kd (NFIL3; [20]): > 5000 nM | Kd (NFIL3; [14]): > 1000 nM | Kd (CREBZF; [15]): > 5000 nM | Kd (CREBZF; [8]): < 200 nM | Kd (CREBZF; [9]): > 1000 nM | Kd (CREBZF; [16]): > 5000 nM | Kd (CREBZF; [11]): > 5000 nM | Kd (CREBZF; [12]): > 1000 nM | Kd (CREBZF; [17]): > 1000 nM | Kd (CREBZF; [14]): > 1000 nM | Kd (FOSL1; [7]): > 5000 nM | Kd (FOSL1; [15]): > 1000 nM | Kd (FOSL1; [8]): > 5000 nM | Kd (FOSL1; [9]): > 1000 nM | Kd (FOSL1; [16]): > 1000 nM | Kd (FOSL1; [11]): > 1000 nM | Kd (FOSL1; [12]): > 1000 nM | Kd (FOSL1; [17]): > 1000 nM | Kd (FOSL1; [14]): > 1000 nM | Kd (HLF; [7]): > 1000 nM | Kd (HLF; [15]): > 5000 nM | Kd (HLF; [8]): > 1000 nM | Kd (HLF; [9]): > 1000 nM | Kd (HLF; [16]): > 1000 nM | Kd (HLF; [11]): > 1000 nM | Kd (HLF; [12]): > 1000 nM | Kd (HLF; [17]): > 5000 nM | Kd (HLF; [14]): > 1000 nM
Sequence: NQIKTLRTRLSKLRKDNLQLEKDIANLERKAKDLRAEKEQLEYEL [ATF4-d1]

Source: paper PMC4335062, “Data-Driven Prediction and Design of bZIP Coiled-Coil Interactions” (PLoS Computational Biology, 2015)
